Patent US6551998B1, “Antimicrobial agents” (University of Louisville Research Foundation, Inc., priority 1999, dated 2003)
≈ marks a conversion by molar mass, not a printed value. Where two headings read alike, the source gives them in different places. Square brackets hold non-standard residues; d marks the D form. Ends that are not written are not given here. 2Nal = N[C@@H](Cc1ccc2ccccc2c1)C(=O)O

What was measured:
[1] = test system: Methicillin resistant Staphylococcus aureus (ATCC 33591); assay type: cell-based; conditions: for MRSA IC50: Table 4; for IC50 / MIC: ATCC 33591; for activity against MRSA (in words): gram-positive organism; for selectivity between MRSA and P. aeruginosa (in words): comparison of the MRSA and Ps A. IC50 of Table 4
Procedure: (§1) The antimicrobial compounds of the present invention were assayed using a standard microdilution assay against gram-positive bacteria Staphylococcus aureus (strain used: ATTC 29213) and methicillin-resistant strain used ATCC 33591) and the gram-negative bacteria Pseudomonas aeruginosa (strain used ATCC27853). The samples were assayed against 1-5×10^5 colony forming units, in Mueller-Hinton broth, at 37° C. The activity was determined following a 21 hour incubation. The IC50 values were calculated using sigmoidal curve fitting software. (Graphpad™, ISI Software, San Diego, Calif.) and correspond to the sample concentration which inhibits 50 percent of bacterial growth. The minimum inhibitory concenttration (MIC) is defined as the lowest concentration of sample at which no growth is detected by optical density between

[2] = test system: Pseudomonas aeruginosa (ATCC27853); assay type: cell-based; conditions: for Ps A. IC50: Table 4; for activity against Pseudomonas aeruginosa (in words): gram negative organism
Procedure: as §1

Fusarium moniliforme = conditions: cited from earlier work
Fusarium oxysporum = conditions: cited from earlier work
[3] = Table 2, Mueller-Hinton broth, 37° C., 21 hour incubation, 50 percent inhibition of bacterial growth
[4] = Table 2, lowest concentration at which no growth is detected, 21 hour incubation

| Compound | MRSA IC50 [1] [µg/mL] | Ps A. IC50 [2] [µg/mL] | IC50 [1] [µg/mL] | MIC [1] [µg/mL] | further results |
| --- | --- | --- | --- | --- | --- |
| 4-AMBψ[CH2NH]Lys-Ser-4-AMBψ[CH2NH]Leu-OH [Compound 38] | > 500 | > 500 | – | – | – |
| 4-AMBψ[CH2NH]Lys-Ser-Pheψ[CH2NH]Leu-OH [Compound 37] | > 500 | 415 | – | – | – |
| CC(C)C[C@H](NC[C@H](Cc1ccccc1)NC(=O)[C@H](CO)NC(=O)[C@H](CCCCN)NC[C@@H](N)Cc1ccc2ccccc2c1)C(=O)O [Compound 1, H-2-Nal ψ[CH2NH]Lys-Ser-Pheψ[CH2NH]Leu-OH] | – | – | 3 (≈ 4.53 µM) | 8 to 16 | activity against MRSA (in words) [1]: most active; IC50 [2, 3]: 10 µg/mL (≈ 15.1 µM); MIC [2, 4]: 16 to 32 µg/mL |
| CC(C)C[C@H](NC[C@H](Cc1ccccc1)NC(=O)[C@@H](NC(=O)[C@H](CCCCN)NC[C@@H](N)Cc1ccc2ccccc2c1)C(C)C)C(=O)O [Compound 2, H-2-Nalψ[CH2NH]Lys-Val-Pheψ[CH2NH]Leu-OH] | – | – | 69 (≈ 102 µM) | 125 to 250 | IC50 ([2]; ATCC27853, 21 h): 58 µg/mL (≈ 85.9 µM); MIC ([2]; ATCC27853, 21 h): 80 to 152 µg/mL |
| CC(C)C[C@H](NC[C@H](Cc1ccccc1)NC(=O)[C@H](Cc1ccccc1)NC(=O)[C@H](CCCCN)NC[C@@H](N)Cc1ccc2ccccc2c1)C(=O)O [Compound 3, H-2-Nalψ[CH2NH]Lys-Phe-Pheψ[CH2NH]Leu-OH] | – | – | 19 (≈ 26.3 µM) | 125 to 150 | IC50 ([2]; ATCC27853, 21 h): 31 µg/mL (≈ 42.9 µM); MIC ([2]; ATCC27853, 21 h): 40 to 62 µg/mL |
| CSCC[C@H](NC[C@@H](N)Cc1ccc2ccccc2c1)C(=O)N[C@@H](Cc1ccccc1)C(=O)N[C@H](CN[C@@H](CC(C)C)C(=O)O)Cc1ccccc1 [Compound 6, H-2-Nalψ[CH2NH]Met-Phe-Pheψ[CH2NH]Leu-OH] | – | – | 44 (≈ 60.6 µM) | 125 to 250 | – |
| CC[C@H](C)[C@H](NC[C@@H](N)Cc1ccc2ccccc2c1)C(=O)N[C@@H](CO)C(=O)N[C@H](CN[C@@H](CC(C)C)C(=O)O)Cc1ccccc1 [Compound 7, H-2-Nalψ[CH2NH]Ile-Ser-Pheψ[CH2NH]Leu-OH] | – | – | 69 (≈ 107 µM) | 125 to 250 | – |
| CC[C@H](C)[C@H](NC[C@@H](N)Cc1ccc2ccccc2c1)C(=O)N[C@H](C(=O)N[C@H](CN[C@@H](CC(C)C)C(=O)O)Cc1ccccc1)C(C)C [Compound 8, H-2-Nalψ[CH2NH]Ile-Val-Pheψ[CH2NH]Leu-OH] | – | – | 5 (≈ 7.58 µM) | 8 to 16 | – |
| CC[C@H](C)[C@H](NC[C@@H](N)Cc1ccc2ccccc2c1)C(=O)N[C@@H](Cc1ccccc1)C(=O)N[C@H](CN[C@@H](CC(C)C)C(=O)O)Cc1ccccc1 [Compound 9, H-Nalψ[CH2NH]Ile-Phe-Pheψ[CH2NH]Leu-OH] | – | – | 9 (≈ 12.7 µM) | 16 to 32 | – |
| CC(C)C[C@H](NC[C@H](Cc1ccccc1)NC(=O)[C@H](Cc1ccccc1)NC(=O)C(C)(C)NC[C@@H](N)Cc1ccc2ccccc2c1)C(=O)O [Compound 12, H-2-Nalψ[CH2NH]Aib-Phe-Pheψ[CH2NH]Leu-OH] | – | – | 26 (≈ 38.2 µM) | 125 to 250 | – |
| CC(C)C[C@H](NC[C@H](Cc1ccccc1)NC(=O)C(C)(C)NC(=O)[C@H](CCCCN)NC[C@@H](N)Cc1ccc2ccccc2c1)C(=O)O [Compound 13, H-2-Nalψ[CH2NH]Lys-Aib-Pheψ[CH2NH]Leu-OH] | – | – | 54 (≈ 81.7 µM) | 125 to 250 | IC50 ([2]; ATCC27853, 21 h): 59 µg/mL (≈ 89.3 µM); MIC ([2]; ATCC27853, 21 h): 80 to 125 µg/mL; activity against Pseudomonas aeruginosa (in words) [2]: good potency |
| CSCCC(NCC(N)Cc1ccc2ccccc2c1)C(=O)NC(C)(C)C(=O)NC(CNC(CC(C)C)C(=O)O)Cc1ccccc1 (stereo not drawn) [Compound 14, H-2-Nalψ[CH2NH]Met-Aib-Pheψ[CH2NH]Leu-OH] | – | – | 3 (≈ 4.52 µM) | 8 to 16 | activity against MRSA (in words) [1]: also active; IC50 ([2]; ATCC27853, 21 h): 20 µg/mL (≈ 30.1 µM); MIC ([2]; ATCC27853, 21 h): 31 to 62 µg/mL; activity against Pseudomonas aeruginosa (in words) [2]: good potency |
| CC[C@H](C)[C@H](NC[C@@H](N)Cc1ccc2ccccc2c1)C(=O)NC(C)(C)C(=O)N[C@H](CN[C@@H](CC(C)C)C(=O)O)Cc1ccccc1 [Compound 15, H-2-Nalψ[CH2NH]Ile-Aib-Pheψ[CH2NH]Leu-OH] | – | – | 39 (≈ 60.4 µM) | 80 to 125 | – |
| CCC(CC)(NC[C@@H](N)Cc1ccc2ccccc2c1)C(=O)N[C@@H](CO)C(=O)N[C@H](CN[C@@H](CC(C)C)C(=O)O)Cc1ccccc1 [Compound 16, H-2-Nalψ[CH2NH]Deg-Ser-Pheψ[CH2NH]Leu-OH] | – | – | 17 (≈ 26.2 µM) | 62 to 125 | IC50 [2, 3]: 170 µg/mL (≈ 262 µM); MIC [2, 4]: > 250 µg/mL |
| CCC(CC)(NC[C@@H](N)Cc1ccc2ccccc2c1)C(=O)N[C@@H](Cc1ccccc1)C(=O)N[C@H](CN[C@@H](CC(C)C)C(=O)O)Cc1ccccc1 [Compound 18, H-2-Nalψ[CH2NH]Deg-Phe-Pheψ[CH2NH]Leu-OH] | – | – | 6 (≈ 8.48 µM) | 16 to 32 | – |
| CCC(CC)(NC(=O)[C@H](CCCCN)NC[C@@H](N)Cc1ccc2ccccc2c1)C(=O)N[C@H](CN[C@@H](CC(C)C)C(=O)O)Cc1ccccc1 [Compound 19, H-2-Nalψ[CH2NH]Lys-Deg-Pheψ[CH2NH]Leu-OH] | – | – | 67 (≈ 97.2 µM) | 125 to 250 | IC50 ([2]; ATCC27853, 21 h): 143 µg/mL (≈ 208 µM); MIC ([2]; ATCC27853, 21 h): 250 to 500 µg/mL |
| CCC(CC)(NC(=O)[C@H](CCSC)NC[C@@H](N)Cc1ccc2ccccc2c1)C(=O)N[C@H](CN[C@@H](CC(C)C)C(=O)O)Cc1ccccc1 [Compound 20, H-Nalψ[CH2NH]Met-Deg-Pheψ[CH2NH]Leu-OH] | – | – | 5 (≈ 7.23 µM) | 16 to 32 | IC50 ([2]; ATCC27853, 21 h): 64 µg/mL (≈ 92.5 µM); MIC ([2]; ATCC27853, 21 h): 80 to 125 µg/mL; activity against Pseudomonas aeruginosa (in words) [2]: good potency |

| Compound | MRSA IC50 [1] [µg/mL] | Ps A. IC50 [2] [µg/mL] | IC50 [1] [µg/mL] | MIC [1] [µg/mL] | further results |
| --- | --- | --- | --- | --- | --- |
| CC[C@H](C)[C@H](NC[C@@H](N)Cc1ccc2ccccc2c1)C(=O)NC(CC)(CC)C(=O)N[C@H](CN[C@@H](CC(C)C)C(=O)O)Cc1ccccc1 [Compound 21, H-2-Nalψ[CH2NH]Ile-Deg-Pheψ[CH2NH]Leu-OH] | – | – | 34 (≈ 50.4 µM) | 40 to 162 | – |
| Ac-2-Nalψ[CH2NH]Lys-Ser-Pheψ[CH2NH]Leu-OH [Compound 24] | 60 | 180 | – | – | – |
| Cecropin A: Cecropins are cationic linear peptides isolated from the hemolymph of the giant silk moth; insect-derived antimicrobial peptide (KWKLFKKIEKVGQNIRDGIIKAGPAVAVVGQATQIAK; ends and bridges not checked; UniProt P01507 27-63, looked up) | – | – | – | – | concentration giving total killing (Fusarium moniliforme): 12.4 µg/mL; concentration giving total killing (Fusarium oxysporum): 12.4 µg/mL |
| H-2-Nal-Lys-Ser-Phe-Leu-OH (H-[2Nal]KSFL-OH; SMILES CC(C)C[C@H](NC(=O)[C@H](Cc1ccccc1)NC(=O)[C@H](CO)NC(=O)[C@H](CCCCN)NC(=O)[C@@H](N)Cc1ccc2ccccc2c1)C(=O)O) [Compound 26] | 184 | 388 | – | – | activity against MRSA (in words) [1]: modest activity in both assays; activity against Pseudomonas aeruginosa (in words) [2]: modest activity in both assays |
| H-2-Nalψ[CH2NAc]Lys-Ser-Pheψ[CH2NH]Leu-OH [Compound 23] | 19.6 | 33.5 | – | – | activity against MRSA (in words) [1]: active against both; activity against Pseudomonas aeruginosa (in words) [2]: active against both |
| H-2-Nalψ[CH2NAc]Met-Aib-Pheψ[CH2NH]Leu-OH [Compound 25] | 28.7 | > 500 | – | – | selectivity between MRSA and P. aeruginosa (in words) [1]: very selective; activity against MRSA (in words) [1]: quite active |
| H-2-Nalψ[CH2NH]Lys(Ac)-Ser-Pheψ[CH2NH]Leu-OH [Compound 28] | 25.8 | 190 | – | – | – |
| H-2-Nalψ[CH2NH]Lys-Ser-4-AMBψ[CH2NH]Leu-OH [Compound 36] | 37.5 | 32.2 | – | – | – |
| H-2-Nalψ[CH2NH]Lys-Ser-Phe-Leu-OH (H-[2Nal]KSFL-OH; also: ψ[CH2NH] reduced bond between 2-Nal1 and Lys2) [Compound 27] | 37.8 | 65.4 | – | – | – |
| H-2-Nalψ[CH2NH]Lys-Ser-Pheψ[CH2NAc]Leu-OH [Compound 30] | 26 | 50 | – | – | – |
| H-2-Nalψ[CH2NH]Met-3-AMB-Pheψ[CH2NH]Leu-OH [Compound 34] | 47 | 230 | – | – | – |
| H-2-Nalψ[CH2NH]Met-4-AMB-Pheψ[CH2NH]Leu-OH [Compound 33] | 17.6 | 163 | – | – | selectivity between MRSA and P. aeruginosa (in words) [1]: quite selective toward MRSA |
| H-2-Nalψ[CH2NH]Met-Aib-Pheψ[CH2NH]Leu-NH2 [Compound 31] | 10.4 | 94 | – | – | – |
| H-2-Nalψ[CH2NH]Nle-Aib-Pheψ[CH2NH]Leu-OH [Compound 32] | 35 | > 500 | – | – | – |
| H-D-2-Nalψ[CH2NH]D-Lys-D-Ser-D-Pheψ[CH2NH]D-Leu-OH [Compound 29] | 18.8 | 13.9 | – | – | selectivity between MRSA and P. aeruginosa (in words) [1]: slight selectivity for the gram-negative organisms |
| H-D-2-Nalψ[CH2NH]D-Met-Aib-D-Pheψ[CH2NH]D-Leu-OH [Compound 35] | 42.1 | 463 | – | – | – |
| H-D-2-Nalψ[CH2NH]Lys-Ser-Pheψ[CH2NH]Leu-OH [Compound 22] | 10.9 | 9.2 | – | – | activity against MRSA (in words) [1]: active against both; activity against Pseudomonas aeruginosa (in words) [2]: active against both |
